From patent publication US5817670A, “Naphthyridine derivatives and pharmaceutical compositions thereof” (Yamanouchi Pharmaceutical Co., Ltd., priority 1994, dated 1998) come the findings set out here.

Assay [1] has as its target type III phosphodiesterase. Put plainly: Phosphodiesterase inhibition activity (in vitro), Type III. The assay is classed as biochemical, rat. From the text: (A) In order to evaluate selectivity of the compounds of the present invention for type IV phosphodiesterase, types I, II, III and V phosphodiesterase isozymes were purified in the following manner.
1) Solutions containing various phosphodiesterase (types I, II and III) isozymes were purified from rat heart muscle cells in the following manner. Under ether anesthesia, Wistar rat was subjected to thoracotomy to excise the heart. After removing blood by perfusion with physiological saline supplemented with heparin (1 unit/ml), the heart was finely chopped with scissors. This was suspended in buffer A (20 mM Bis-Tris, 5 mM dithioerythritol, 2 mM EGTA and 50 mM sodium acetate, pH 6.5) containing a protease inhibitor (50 μM phenyl-methyl-sulfonyl-fluoride, 5 μM pepstatin A, 40 μM leupeptin, 20 μM aprotinin or 2 mM benzamidine) and then the cells were disrupted using polytron and sonicator and subjected to ultracentrifugation (4° C., 100,000×g, 60 minutes) to give a soluble fraction.
2) Solutions containing various phosphodiesterase isozymes were obtained from the thus obtained soluble fraction in the following manner. The thus, obtained soluble fraction was applied to a column of 1.6×10.0 cm packed with Q Sepharose which had been equilibrated with buffer A. Next, said column was washed with 300 ml of buffer A to remove non-absorbed protein. Phosphodiesterase was eluted with 200 ml of buffer A having 0.05 to 1.25M linear gradient of sodium acetate to collect about 40 fractions each containing 5.0 ml eluate. Each fraction was checked for cAMP- and cGMP-metabolizing phosphodiesterase activities. Of these fractions, a fraction having only cAMP-metabolizing activity and showing disappearance of the metabolizing activity by 0.1 μM cilostamide (a type III phosphodiesterase selective inhibitor) was used as the type III phosphodiesterase. […] These fractions were separately collected to be used as phosphodiesterase (types I, II and III) stock solutions for the examination of selectivity. p1 3) A solution containing type V phosphodiesterase was prepared from peripheral blood of a healthy person in the following manner. A 200 ml portion of physiological saline supplemented with dextran (3%) was added to 500 ml of heparinized peripheral blood and incubated at 37° C. for 40 minutes to effect precipitation of erythrocytes. The supernatant fluid after precipitation of erythrocytes was recovered and centrifuged once, and the resulting precipitate was suspended in buffer B (140 mM NaCl, 5 mM KCl, 5 mm glucose and 10 mM HEPES, pH 7.4), overlaid on a solution for density gradient centrifugation use (Ficoll solution) and then centrifuged at room temperature for 40 minutes at 450×g, thereby separating monocyte fraction and granulocyte fraction. The granulocyte fraction was washed once with buffer C (140 mM NaCl, 5 mM KCl, 1 mM CaCl2, 1 mM MgCl2, 5 mM glucose and 10 mM HEPES, pH 7.4) and suspended in buffer D (20 mM Bis-Tris, 5 mM dithioerythritol, 2 mM EGTA and 50 mM sodium acetate, pH 6.5) containing a protease inhibitor (40 μM leupeptin, 5 μM pepstatin A, 20 μM aprotinin, 50 μM phenyl-methyl-sulfonyl-fluoride or 2 mM benzamidine) and then the cells were disrupted using polytron and sonicator and subjected to ultracentrifugation (4° C., 100,000×g, 60 minutes) to give a soluble fraction.
(B) Inhibitory activities were measured using the thus obtained stock solutions of various phosphodiesterase isozymes.
1) A predetermined amount of each compound to be tested was subjected to 10 minutes of reaction at 30° C. in a reaction mixture containing 40 mM Tris-HCl (pH 8.0), 5 mM MgCl2, 4 mM 2-mercaptoethanol, 10 μM rolipram (a type IV phosphodiesterase selective inhibitor), 1 μM cAMP, 10 nM ^3 H-cAMP (in the case of type V phosphodiesterase, 1 μM cAMP and 10 nM ^3 H-cAMP are replaced by 1 μM cGMP and 100 nM ^3 H-cGMP) and each of the isozyme stock solutions. […]

The target in assay [2] is type IV phosphodiesterase. The assay can be described thus: Phosphodiesterase inhibition activity (in vitro), Type IV. The assay is classed as biochemical, human (peripheral blood of a healthy person). As to the method: (1) Method for measuring type IV phosphodiesterase inhibition activity
The following assay was used for the evaluation of the capability of the compounds of the present invention to inhibit type IV phosphodiesterase.
1) Physiological saline (200 ml) supplemented with dextran (3%) was added to 500 ml of heparinized peripheral blood of a healthy person and incubated at 37° C. for 40 minutes to effect precipitation of erythrocytes. The supernatant after precipitation of erythrocytes was recovered and centrifuged once, and the resulting precipitate was suspended in buffer A (140 mM NaCl, 5 mM KCl, 5 mM glucose and 10 mM HEPES, pH 7.4), overlaid on a solution for density gradient centrifugation use (Ficoll solution) and then centrifuged at room temperature for 40 minutes at 450×g, thereby separating monocyte fraction and granulocyte fraction. The granulocyte fraction was washed once with buffer B (140 mM NaCl, 5 mM KCl, 1 mM CaCl2, 1 mM MgCl2, 5 mM glucose and 10 mM HEPES, pH 7.4) and suspended in buffer C (20 mM Bis-Tris, 5 mM dithioerythritol, 2 mM EGTA and 50 mM sodium acetate, pH 6.5) containing a protease inhibitor (50 μM phenyl-methyl-sulfonyl-fluoride, 5 μM pepstatin A, 40 μM leupeptin, 20 μM aprotinin or 2 mM benzamidine) and then the cells were disrupted using polytron and sonicator and subjected to ultracentrifugation (4° C., 100,000×g, 60 minutes) to give a soluble fraction.
2) The thus obtained soluble fraction was applied to a column of 1.6×10 cm packed with Q Sepharose which had been equilibrated with buffer C. Next, the column was washed with 300 ml of buffer C to remove non-absorbed protein. Phosphodiesterase was eluted with 200 ml of buffer C having 0.05 to 1.25M linear gradient of sodium acetate to collect 40 fractions each containing 5.0 ml eluate. Each fraction was checked for cAMP- and cGMP-metabolizing phosphodiesterase activities. Fractions having no cGMP- but cAMP-metabolizing activity and showing disappearance of the metabolizing activity by 10 μM rolipram (a type IV phosphodiesterase selective inhibitor) were collected to be used as a stock solution for the examination of type IV phosphodiesterase inhibition activity.
3) A predetermined amount of each compound to be tested was subjected to 10 minutes of reaction at 30° C. in a reaction mixture containing 40 mM Tris-HCl (pH 8.0), 5 mM MgCl2, 4 mM 2-mercaptoethanol, 0.3 μM cilostamide (a type III phosphodiesterase selective inhibitor), 1 μM cAMP, 10 nM ^3 H-cAMP and the type IV phosphodiesterase stock solution. The reaction solution was boiled at 90° C. for 1 minute, ice-cooled, mixed with 1 unit of 5'-nucleotidase and then subjected to 10 minutes of reaction at 30° C., and the reaction was stopped by the addition of 1 ml of methanol. The reaction solution was passed through a Dowex 1×8 column to adsorb un-hydrolyzed material and then the radioactivity was measured.
4) Concentration of each compound to be tested which inhibits 50% of the metabolic activity of type IV phosphodiesterase was calculated and expressed as IC50. (2) Method for measuring the activity to inhibit various phosphodiesterase isozymes
Results: The inhibition activity (IC50) value for h type of phosphodiesterase (Type I, Type II, Type III, e IV, and Type V) is shown in the following table.

Counter-ions that a name gives are not always drawn.

Take `CCn1c(=O)cc(C2CCCCC2)c2cccnc21` [Example 46, 4-cyclohexyl-1-ethyl-1,8-naphthyridin-2(1H)-one 0.45 hydrochloride 0.25 hydrate]: the IC50 in assay [1] and in assay [2] was over 30 µM each time.

As for `CCn1c(=O)cc(-c2ccccc2)c2c(C)cc(C)nc21` [Example 38, 1-Ethyl-5,7-dimethyl-4-phenyl-1,8-naphthyridin-2(1H)-one], the IC50 in assay [1] and in assay [2] was over 30 µM in each case.

In the case of `CCc1cc(C)c2c(-c3ccccc3)cc(=O)n(CC)c2n1` [Example 40, 1,7-Diethyl-5-methyl-4-phenyl-1,8-naphthyridin-2(1H)-one], the figures for the IC50 in assay [1] and in assay [2] were 32.3 µM and 31.9 µM, respectively.

For the compound `CCc1cc(C)c2c(-c3cccc(Cl)c3)cc(=O)n(C3CC3)c2n1` [Example 35, 4-(3-Chlorophenyl)-1-cyclopropyl-7-ethyl-5-methyl-1,8-naphthyridin-2(1H)-on], the IC50 – broadly, the midpoint of a concentration-inhibition curve – in assay [1] amounted to 34.4 µM; in assay [2], 21.9 µM.

For the compound `CCn1c(=O)cc(-c2cccc(Br)c2)c2c(C)cc(C)nc21` [Example 30, 4-(3-Bromophenyl)-1-ethyl-5,7-dimethyl-1,8-naphthyridin-2(1H)-one], the IC50 in assay [1] came out at 10.9 µM; in assay [2], 31.2 µM.

With `CCn1c(=O)cc(-c2cccc(Cl)c2)c2cccnc21` [Example 15, 4-(3-Chlorophenyl)-1-ethyl-1,8-naphthyridin-2(1H)-one], the IC50 stood at 50.3 µM in assay [1] and 58.9 µM in assay [2].

`CCc1cc(C)c2c(-c3cccc(Cl)c3)cc(=O)n(C)c2n1` [Example 27, 4-(3-Chlorophenyl)-7-ethyl-1,5-dimethyl-1,8-naphthyridin-2(1H)-one]: the IC50 in assay [1] is 15.5 µM; in assay [2], over 30 µM.

`Cc1cc(C)c2c(-c3cccc(Cl)c3)cc(=O)n(C)c2n1` [Example 24, 4-(3-chlorophenyl)-1,5,7-trimethyl-1,8-naphthyridin-2(1H)-one]: the values for the IC50 in assay [1] and in assay [2] were 21.5 µM and 98.3 µM, respectively.

`CCCn1c(=O)cc(-c2cccc(Br)c2)c2c(C)cc(CC)nc21` [Example 33, 4-(3-Bromophenyl)-7-ethyl-5-methyl-1-propyl-1,8-naphthyridin-2(1H)-one]: the IC50 in assay [1] is 17.7 µM; in assay [2], over 30 µM.

With `CCc1cc(C)c2c(-c3cccc(Br)c3)cc(=O)n(CC)c2n1` [Example 31, 4-(3-bromophenyl)-1,7-diethyl-5-methyl-1,8-naphthyridin-2(1H)-one], the IC50 in assay [1] and in assay [2] was over 30 µM throughout.

Turning to `CCc1cc(C)c2c(-c3ccccc3)cc(=O)n(C)c2n1` [Example 26, 7-Ethyl-1,5-dimethyl-4-phenyl-1,8-naphthyridin-2(1H)-one], the values for the IC50 in assay [1] and in assay [2] were 56.2 µM and 84.9 µM, respectively.

Regarding `CCc1cc(C)c2c(-c3cccc(Cl)c3)cc(=S)n(C)c2n1` [Example 43, 4-(3-chlorophenyl)-7-ethyl-1,5-dimethyl-1,8-naphthyridine-2(1H)-thione], the IC50 in assay [1] and in assay [2] was over 30 µM each time.

Consider `CCn1c(=O)cc(-c2cccc(Cl)c2)c2c(C)cc(C)nc21` [Example 29, 4-(3-Chlorophenyl)-1-ethyl-5,7-dimethyl-1,8-naphthyridin-2(1H)-one], for which the IC50 in assay [1] is 14.3 µM; in assay [2] it was over 30 µM.

As for `CCc1cc(C)c2c(C3CCCCC3)cc(=O)n(CC)c2n1` [Example 49, 4-cyclohexyl-1,7-diethyl-5-methyl-1,8-naphthyridin-2(1H)-one], the IC50 in assay [1] was 27.3 µM; in assay [2], 30.2 µM.
